Assay results as given in article PMC7489893, “A small molecule inhibitor of HER3: a proof-of-concept study” (Biochemical Journal, 2020).
Read-outs that look alike come from different tables or passages of the source.

What was measured:
[1] = target: T1, HER2 kinase domain (Homo sapiens, UniProt P04626); experiment: biochemical; parameters: in vitro HER2 kinase inhibition assay at the Km for ATP (ThermoFisher); details: at Km for ATP; read-out: Activity against HER2, IC50
T1 construct: gene ERBB2; kinase domain, ThermoFisher in vitro kinase assay
Text: Since the readout for HER3 function in cells required HER2 activity, it was critical to confirm HER2 inactivity of these compounds.

[2] = target: T2, HER2 (Homo sapiens, UniProt P04626, M706A/M712L/Q711L); experiment: biochemical; parameters: differential scanning fluorimetry with SYPRO Orange, shift in HER2 kinase domain Tm (counter screen); details: counter screen
T2 construct: gene ERBB2; HER2 kinase domain (S703-G1029)
Description: Thermal shift assays were performed using a QuantStudio7 Flex Real-Time PCR instrument (Applied Biosystems, ThermoFischer Scientific) scanning from 15°C to 75°C in 0.5°C increments every 30 s after an initial incubation at 15°C for 1 min. Fluorescence was measured at the end of each 30 s period with an excitation wavelength of 470 nm and an emission wavelength of 620 nm. HER3 and HER2 kinase domain recombinant proteins were diluted in 50 mM Hepes pH 7.5, 150 mM NaCl, 5% glycerol and 1 mM DTT to a concentration of 1.5 μM and then incubated with the indicated concentration of compounds in a total reaction volume of 10 μl, with a final concentration of 2.5X SYPRO Orange (ThermoFisher Scientific) as fluorescence probe. […] We sought to identify compounds binding specifically to HER3. Since HER2 and HER3 are highly homologous EGFR family members, we took forward the 555 compounds identified as stabilising HER3, to be counter screened for HER2 binding. […] Compounds binding to HER2, i.e. inducing a shift in HER2 Tm over 2°C (3×SD) compared with the DMSO neutral control were disregarded (Supplementary Figure S2D). […] A differential scanning fluorimetry (DSF) assay compound screen identifies 428 HER3-preferential binders from a 107 008 compound library. (A) Overview of the screening strategy and hit rate for each step of the screening cascade. […] ApoHER3 (HER3 kinase domain with no ligand) was used as a control for all DSF analyses (mean of ApoHER3 Tm across the plates set at ΔTm = 0°C is indicated by the dash green line) and ΔTm values were calculated for each pool of compounds tested at 30 μM each (N = 1). Cut-off values of ΔTm>3°C and ΔTm < −5°C were used to designate hits (shown as dashed pink lines). The pool of compounds containing proof-of-concept compound AC3573 is circled. Gaps indicate the rare plate failures (three plates). Compounds from these plates were retested during the deconvolution screen. (C) Correlation of shift in HER3 Tm value induced by deconvoluted pool compounds tested at 30 μM between the two repeats of deconvolution screening. AC3573 and its three pool compounds are highlighted. (D) Dose-dependent analysis of thermal shifts induced by AC3573 compound tested at 1, 3, 10 and 30 μM in the HER3 potency screen. The change in HER3 Tm value (ΔTm), compared with ApoHER3 control, is reported as mean ± SD from N = 4 independent experiments. Representative thermal denaturation profiles of recombinant HER3 kinase domain, in the presence of 0.3% DMSO (Apo control), ATP/MgCl2 (ATP control) or AC3573 tested at 1, 3, 10 and 30 μM. (E) Dose-dependent analysis of thermal shifts induced by AC3573 compound tested at 1, 3, 10 and 30 μM in the HER2 counter screen. […]

[3] = target: T3, HER3 (Homo sapiens, UniProt P21860); experiment: DSF dose-response thermal shift; HDX-MS binding site mapping; parameters: gene ERBB3
T3 sequence (P21860 684-1020): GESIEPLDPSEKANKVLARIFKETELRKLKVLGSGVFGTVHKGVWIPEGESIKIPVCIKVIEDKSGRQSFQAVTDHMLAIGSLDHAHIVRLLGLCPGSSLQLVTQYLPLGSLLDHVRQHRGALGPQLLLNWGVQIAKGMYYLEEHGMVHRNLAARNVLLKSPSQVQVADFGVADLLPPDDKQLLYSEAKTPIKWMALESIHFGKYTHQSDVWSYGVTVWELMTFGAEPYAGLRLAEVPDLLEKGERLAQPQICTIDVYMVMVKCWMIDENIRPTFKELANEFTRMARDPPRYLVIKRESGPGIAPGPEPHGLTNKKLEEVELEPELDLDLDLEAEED

[4] = target: T3, HER3; experiment: biochemical; parameters: gene ERBB3; HER3 kinase domain (residues G684-D1020); differential scanning fluorimetry with SYPRO Orange, shift in HER3 kinase domain Tm
Description: Thermal shift assays were performed using a QuantStudio7 Flex Real-Time PCR instrument (Applied Biosystems, ThermoFischer Scientific) scanning from 15°C to 75°C in 0.5°C increments every 30 s after an initial incubation at 15°C for 1 min. Fluorescence was measured at the end of each 30 s period with an excitation wavelength of 470 nm and an emission wavelength of 620 nm. HER3 and HER2 kinase domain recombinant proteins were diluted in 50 mM Hepes pH 7.5, 150 mM NaCl, 5% glycerol and 1 mM DTT to a concentration of 1.5 μM and then incubated with the indicated concentration of compounds in a total reaction volume of 10 μl, with a final concentration of 2.5X SYPRO Orange (ThermoFisher Scientific) as fluorescence probe. […] Hit compounds stabilising HER3 were then evaluated for their relative binding affinity in a dose–response thermal shift assay at 1, 3, 10 and 30 μM (Supplementary Figure S2C). […] The proof-of-concept compound was confirmed as a HER3 binder inducing a shift in HER3 Tm of over 3°C with the dose–response indicating an estimated IC50 of 4 μM (Figure 1D and Supplementary Table S2). Near neighbours of those 109 hits were selected and 663 new compounds were screened in duplicate for their relative potency at 1, 3, 10 and 30 μM by thermal shift assay. From those, 446 compounds passed the selection criteria, i.e. induced shift in HER3 Tm > 3°C below 10 μM (data not shown). Figure 1. A differential scanning fluorimetry (DSF) assay compound screen identifies 428 HER3-preferential binders from a 107 008 compound library. (A) Overview of the screening strategy and hit rate for each step of the screening cascade. […] ApoHER3 (HER3 kinase domain with no ligand) was used as a control for all DSF analyses (mean of ApoHER3 Tm across the plates set at ΔTm = 0°C is indicated by the dash green line) and ΔTm values were calculated for each pool of compounds tested at 30 μM each (N = 1). Cut-off values of ΔTm>3°C and ΔTm < −5°C were used to designate hits (shown as dashed pink lines). The pool of compounds containing proof-of-concept compound AC3573 is circled. Gaps indicate the rare plate failures (three plates). Compounds from these plates were retested during the deconvolution screen. (C) Correlation of shift in HER3 Tm value induced by deconvoluted pool compounds tested at 30 μM between the two repeats of deconvolution screening. AC3573 and its three pool compounds are highlighted. (D) Dose-dependent analysis of thermal shifts induced by AC3573 compound tested at 1, 3, 10 and 30 μM in the HER3 potency screen. The change in HER3 Tm value (ΔTm), compared with ApoHER3 control, is reported as mean ± SD from N = 4 independent experiments. […]

[5] = target: T3, HER3; experiment: biochemical; parameters: gene ERBB3; HER3 kinase domain (residues G684-D1020); differential scanning fluorimetry with SYPRO Orange, HER3 Tm shift, single-compound deconvolution screen; details: read-out: ΔTm (°C) HER3 deconvolution screen
Description: Thermal shift assays were performed using a QuantStudio7 Flex Real-Time PCR instrument (Applied Biosystems, ThermoFischer Scientific) scanning from 15°C to 75°C in 0.5°C increments every 30 s after an initial incubation at 15°C for 1 min. Fluorescence was measured at the end of each 30 s period with an excitation wavelength of 470 nm and an emission wavelength of 620 nm. HER3 and HER2 kinase domain recombinant proteins were diluted in 50 mM Hepes pH 7.5, 150 mM NaCl, 5% glycerol and 1 mM DTT to a concentration of 1.5 μM and then incubated with the indicated concentration of compounds in a total reaction volume of 10 μl, with a final concentration of 2.5X SYPRO Orange (ThermoFisher Scientific) as fluorescence probe. […] Having established a robust screening platform, a total of 107 008 small molecule compounds were screened as mixtures of four compounds per well (a total of 26 752 wells) at 30 μM each in a primary library screen. […] In the second step of screening, hit pools of compounds were arrayed as individual compounds and 3119 compounds (2835 hits plus 284 compounds from failed wells from the primary screen) were assessed at 30 μM, using the same thermal shift assay settings as for the primary screen (0.3% DMSO as neutral controls reflecting the single compound use, 200 μM ATP/10 mM MgCl2 as positive controls) applying again a cut-off value of ΔTm > 3°C (Figure 1C). […]

[6] = read-out: ΔTm (°C) HER3 potency screen

## NS(=O)(=O)c1cccc(Nc2cc(-c3c[nH]c4ccccc34)ncn2)c1 [AC3573]
[1]
  IC50: > 10 µM
[2]; 1 uM
  ΔTm at 1 µM: -0.75 ± 0.18 °C
[2]; 3 uM
  ΔTm at 3 µM: 0.48 ± 0.52 °C
[2]; 10 uM
  ΔTm at 10 µM: 1.56 ± 0.26 °C
[2]; 30 uM
  ΔTm at 30 µM: 1.95 ± 0.25 °C
[3]
  IC50: ~4 µM
[4]; 3 uM, potency screen
  ΔTm at 3 µM: 1.27 ± 0.51 °C
[4]; 30 uM, potency screen
  ΔTm at 30 µM: 3.2 ± 0.24 °C
[4]; [6]
  ΔTm at 1 µM: -1.34 ± 0.48 °C
  ΔTm at 10 µM: 3.28 ± 0.62 °C
[5]
  ΔTm at 30 µM: 3.65 ± 0.25 °C
